Like-named read-outs stand apart in the source and are kept apart here.
What was measured:
[1] = tested on: HIV-1 (IIIB) in MT-4 cells; experiment: MT-4 HIV assay; format: cell-based; settings: Human immunodeficiency virus 1, MT4, 120 h
In short: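 Antiviral activity was read by Cell Titer Glo after a 5-day, 37 °C culture of MT-4 cells pre-infected with a 1:250 dilution of HIV-1 (IIIB). Compounds were tested as threefold dilution series in complete RPMI. Controls were no drug, mock infection and 5 uM AZT.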

[2] = In short: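 Depletion measured by LC/MS/MS at 2, 12, 25, 45 and 65 minutes after 1 uM compound was added to liver microsomes (0.5 mg/mL; dog, rat, human) with NADPH-regenerating cofactor, in duplicate. In vitro t1/2 converted to Clint.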
[3] = human liver microsomes 0.5 mg/mL, 1 uM compound, NADPH
[4] = rat liver microsomes 0.5 mg/mL, 1 uM compound, NADPH
[5] = HIV-1 (IIIB), MT-4 cells, 5 days, Cell Titer Glo, read-out: EC50

Compound	EC50 [1] [nM]	Human Pred Cl. [2, 3] [L/H/kg]	Rat. Pred. Cl. [2, 4] [L/H/kg]	EC50 [1, 5] [nM]	Human Pred Cl. ([2]; human, microsomes) [L/H/kg]	Rat. Pred. Cl. ([2]; rat, microsomes) [L/H/kg]
COC(=O)N[C@H](C(=O)N[C@@H](Cc1ccc(C#Cc2ccc(N3C[C@H]4C[C@@H]3CN4C3COC3)nc2)cc1)[C@@H](O)CN(Cc1c(F)cc(-c2ccn(C3CC3)n2)cc1F)NC(=O)[C@@H](NC(=O)OC)C(C)(C)C(F)(F)F)C(C)(C)C(F)(F)F [Example 45, Methyl ((5S,8S,9S,14S)-11-(4-(1-cyclopropyl-1H-pyrazol-3-yl)-2,6-difluorobenzyl)-16,16,16-trifluoro-9-hydroxy-15,15-dimethyl-8-(4-((6-((1R,4R)-5-(oxetan-3-yl)-2,5-diazabicyclo[2.2.1]heptan-2-yl)pyridin-3-yl)ethynyl)benzyl)-3,6,13-trioxo-5-(1,1,1-trifluoro-2-methylpropan-2-yl)-2-oxa-4,7,11,12-tetraazahexadecan-14-yl)carbamate]	2.56	<0.11	0.92	–	–	–
COC(=O)N[C@H](C(=O)N[C@@H](Cc1ccc(C#Cc2ccc(N3CC4CCC(C3)[N+]4(C)C3COC3)nc2)cc1)[C@@H](O)CN(Cc1c(F)cc(-c2ccn(C(F)F)n2)cc1F)NC(=O)[C@@H](NC(=O)OC)C(C)(C)C(F)(F)F)C(C)(C)C(F)(F)F (stereo partly drawn) [Example 48, 3-(5-((4-((2S,3S)-4-(1-(4-(1-(difluoromethyl)-1H-pyrazol-3-yl)-2,6-difluorobenzyl)-2-((S)-4,4,4-trifluoro-2-((methoxycarbonyl)amino)-3,3-dimethylbutanoyl)hydrazinyl)-3-hydroxy-2-((S)-4,4,4-trifluoro-2-((methoxycarbonyl)amino)-3,3-dimethylbutanamido)butyl)phenyl)ethynyl)pyridin-2-yl)-8-methyl-8-(oxetan-3-yl)-3,8-diazabicyclo[3.2.1]octan-8-ium]	–	–	–	114	<0.11	0.18
COC(=O)N[C@H](C(=O)N[C@@H](Cc1ccc(C#Cc2cnc(N3CC4CCC(C3)N4C3COC3)cn2)cc1)[C@@H](O)CN(Cc1c(F)cc(-c2ccn(C(F)F)n2)cc1F)NC(=O)[C@@H](NC(=O)OC)C(C)(C)C(F)(F)F)C(C)(C)C(F)(F)F [Example 50, Methyl ((5S,8S,9S,14S)-11-(4-(1-(difluoromethyl)-1H-pyrazol-3-yl)-2,6-difluorobenzyl)-16,16,16-trifluoro-9-hydroxy-15,15-dimethyl-8-(4-((5-(8-(oxetan-3-yl)-3,8-diazabicyclo[3.2.1]octan-3-yl)pyrazin-2-yl)ethynyl)benzyl)-3,6,13-trioxo-5-(1,1,1-trifluoro-2-methylpropan-2-yl)-2-oxa-4,7,11,12-tetraazahexadecan-14-yl)carbamate]	–	–	–	4.31	<0.11	<0.18
COC(=O)N[C@H](C(=O)N[C@@H](Cc1ccc(C#Cc2ccc(N3CC[N+]4([O-])CCOC[C@H]4C3)nc2)cc1)[C@@H](O)CN(Cc1c(F)cc(-c2ccn(C(F)F)n2)cc1F)NC(=O)[C@@H](NC(=O)OC)C(C)(C)C(F)(F)F)C(C)(C)C(F)(F)F (stereo partly drawn) [Example 52, (9aR)-8-(5-((4-((2S,3S)-4-(1-(4-(1-(difluoromethyl)-1H-pyrazol-3-yl)-2,6-difluorobenzyl)-2-((S)-4,4,4-trifluoro-2-((methoxycarbonyl)amino)-3,3-dimethylbutanoyl)hydrazinyl)-3-hydroxy-2-((S)-4,4,4-trifluoro-2-((methoxycarbonyl)amino)-3,3-dimethylbutanamido)butyl)phenyl)ethynyl)pyridin-2-yl)octahydro-5H-pyrazino[2,1-c][1,4]oxazine 5-oxide]	–	0.14	<0.18	8.15	–	–
COC(=O)N[C@H](C(=O)NN(Cc1c(F)cc(-c2ccccn2)cc1F)C[C@H](O)[C@H](Cc1ccc(C#Cc2ccc(N3CC4CCC(C3)N4C3COC3)nc2)cc1)NC(=O)[C@@H](NC(=O)OC)C(C)(C)C(F)(F)F)C(C)(C)C [Example 53, Methyl ((5S,8S,9S,14S)-11-(2,6-difluoro-4-(pyridin-2-yl)benzyl)-9-hydroxy-15,15-dimethyl-8-(4-((6-(8-(oxetan-3-yl)-3,8-diazabicyclo[3.2.1]octan-3-yl)pyridin-3-yl)ethynyl)benzyl)-3,6,13-trioxo-5-(1,1,1-trifluoro-2-methylpropan-2-yl)-2-oxa-4,7,11,12-tetraazahexadecan-14-yl)carbamate]	–	–	–	2.98	0.51	0.2
COC(=O)N[C@H](C(=O)N[C@@H](Cc1ccc(C#Cc2ccc(N3C4CC3CN(C3COC3)C4)nc2)cc1)[C@@H](O)CN(Cc1c(F)cc(-c2cnn(C(F)F)c2)cc1F)NC(=O)[C@@H](NC(=O)OC)C(C)(C)C(F)(F)F)C(C)(C)C(F)(F)F [Example 59, Methyl ((5S,8S,9S,14S)-11-(4-(1-(difluoromethyl)-1H-pyrazol-4-yl)-2,6-difluorobenzyl)-16,16,16-trifluoro-9-hydroxy-15,15-dimethyl-8-(4-((6-(3-(oxetan-3-yl)-3,6-diazabicyclo[3.1.1]heptan-6-yl)pyridin-3-yl)ethynyl)benzyl)-3,6,13-trioxo-5-(1,1,1-trifluoro-2-methylpropan-2-yl)-2-oxa-4,7,11,12-tetraazahexadecan-14-yl)carbamate]	–	–	–	3.38	0.6	0.83
COC(=O)N[C@H](C(=O)N[C@@H](Cc1ccc(C#Cc2ccc(N3CC4CC(C3)N4C3COC3)nc2)cc1)[C@@H](O)CN(Cc1c(F)cc(-c2cnn(C(F)F)c2)cc1F)NC(=O)[C@@H](NC(=O)OC)C(C)(C)C(F)(F)F)C(C)(C)C(F)(F)F [Example 60, Methyl ((5S,8S,9S,14S)-11-(4-(1-(difluoromethyl)-1H-pyrazol-4-yl)-2,6-difluorobenzyl)-16,16,16-trifluoro-9-hydroxy-15,15-dimethyl-8-(4-((6-(6-(oxetan-3-yl)-3,6-diazabicyclo[3.1.1]heptan-3-yl)pyridin-3-yl)ethynyl)benzyl)-3,6,13-trioxo-5-(1,1,1-trifluoro-2-methylpropan-2-yl)-2-oxa-4,7,11,12-tetraazahexadecan-14-yl)carbamate]	–	–	–	3.42	0.12	0.65
COC(=O)N[C@H](C(=O)N[C@@H](Cc1ccc(C#Cc2ccc(N3CC4CC(CN(C(C)=O)C4)C3)nc2)cc1)[C@@H](O)CN(Cc1c(F)cc(-c2cnn(C(F)F)c2)cc1F)NC(=O)[C@@H](NC(=O)OC)C(C)(C)C(F)(F)F)C(C)(C)C(F)(F)F [Example 67, Methyl ((5S,8S,9S,14S)-8-(4-((6-(7-acetyl-3,7-diazabicyclo[3.3.1]nonan-3-yl)pyridin-3-yl)ethynyl)benzyl)-1-(4-(1-(difluoromethyl)-1H-pyrazol-4-yl)-2,6-difluorobenzyl)-16,16,16-trifluoro-9-hydroxy-15,15-dimethyl-3,6,13-trioxo-5-(1,1,1-trifluoro-2-methylpropan-2-yl)-2-oxa-4,7,11,12-tetraazahexadecan-14-yl)carbamate]	–	0.41	1.43	6.25	–	–
COC(=O)N[C@H](C(=O)N[C@@H](Cc1ccc(C#Cc2ccc(N3CC4CCC(C3)O4)nc2)cc1)[C@@H](O)CN(Cc1c(F)cc(-c2cnn(C(F)F)c2)cc1F)NC(=O)[C@@H](NC(=O)OC)C(C)(C)C(F)(F)F)C(C)(C)C(F)(F)F [Example 68, Methyl ((5S,8S,9S,14S)-8-(4-((6-(8-oxa-3-azabicyclo[3.2.1]octan-3-yl)pyridin-3-yl)ethynyl)benzyl)-11-(4-(1-(difluoromethyl)-1H-pyrazol-4-yl)-2,6-difluorobenzyl)-16,16,16-trifluoro-9-hydroxy-15,15-dimethyl-3,6,13-trioxo-5-(1,1,1-trifluoro-2-methylpropan-2-yl)-2-oxa-4,7,11,12-tetraazahexadecan-14-yl)carbamate]	–	<0.11	0.61	7.25	–	–
COC(=O)N[C@H](C(=O)N[C@@H](Cc1ccc(C#Cc2ccc(-c3cn4c(n3)CN(C)C(=O)C4)cc2)cc1)[C@@H](O)CN(Cc1c(F)cc(-c2cnn(C(F)F)c2)cc1F)NC(=O)[C@@H](NC(=O)OC)C(C)(C)C(F)(F)F)C(C)(C)C(F)(F)F [Example 69, Methyl ((5S,8S,9S,14S)-11-(4-(1-(difluoromethyl)-1H-pyrazol-4-yl)-2,6-difluorobenzyl)-16,16,16-trifluoro-9-hydroxy-15,15-dimethyl-8-(4-((4-(7-methyl-6-oxo-5,6,7,8-tetrahydroimidazo[1,2-a]pyrazin-2-yl)phenyl)ethynyl)benzyl)-3,6,13-trioxo-5-(1,1,1-trifluoro-2-methylpropan-2-yl)-2-oxa-4,7,11,12-tetraazahexadecan-14-yl)carbamate]	–	<0.11	<0.18	3.24	–	–
COC(=O)N[C@H](C(=O)N[C@@H](Cc1ccc(C#Cc2ccc(N3CC4CCC(C3)N4S(C)(=O)=O)nc2)cc1)[C@@H](O)CN(Cc1c(F)cc(-c2cnn(C(F)F)c2)cc1F)NC(=O)[C@@H](NC(=O)OC)C(C)(C)C(F)(F)F)C(C)(C)C(F)(F)F [Example 70, Methyl ((5S,8S,9S,14S)-11-(4-(1-(difluoromethyl)-1H-pyrazol-4-yl)-2,6-difluorobenzyl)-16,16,16-trifluoro-9-hydroxy-15,15-dimethyl-8-(4-((6-(8-(methylsulfonyl)-3,8-diazabicyclo[3.2.1]octan-3-yl)pyridin-3-yl)ethynyl)benzyl)-3,6,13-trioxo-5-(1,1,1-trifluoro-2-methylpropan-2-yl)-2-oxa-4,7,11,12-tetraazahexadecan-14-yl)carbamate]	–	–	–	4.79	<0.11	<0.18

Source: patent publication US10294234B2, “HIV inhibitor compounds” (priority 2017, dated 2019)
